Measurements reported in patent publication US10611750B2, “Tetrahydroquinoline compositions as bet bromodomain inhibitors” (FORMA Therapeutics, Inc., priority 2013, dated 2020).
pIC50: −log10 of the molar value.

Tests used:
[1] = molecular target: T1, BRD4 Bromodomain 1 (BRD4 BD1) (Homo sapiens, UniProt O60885); experiment: AlphaScreen binding assay, BRD4 BD1; conditions: His-tagged BRD4 BD1 50 nM, biotinylated H4 (1-21) K5/8/12/16 tetra-acetylated peptide 50 nM, compounds listed under IC50 range headings
T1 construct: 44-168 and BRD4 BD2
Protocol: The binding of Example compounds to BRD4 Bromodomain 1 and BRD4 Bromodomain 2 was assessed using 384-well AlphaScreen assay technology. His-epitope tagged BRD4 BD144-168 and BRD4 BD2333-460 were cloned, expressed, and purified to homogeneity. BRD4 BD1 and BRD4 BD2 binding and inhibition was assessed by monitoring the engagement of biotinylated Histone H4 (1-21) K5/8/12/16 tetra-acetylated peptide with the targets using the AlphaScreen technology (PerkinElmer). Specifically, in a 384-well black or white flat bottom plate, BRD4 BD1 (50 nM final) or BRD4 BD2 (100 nM final) was combined with peptide (50 nM final for BD1 or 100 nM final for BD2) in 50 mM HEPES (pH 7.3), 100 mM NaCl, 0.1% (w/v) BSA, and 0.01% (w/v) Triton X-100 either in the presence of DMSO (final 1.25% DMSO) or compound dilution series in DMSO. Alpha streptavidin donor beads and Nickel-chelate acceptor beads were added to a final concentration of 10 μg/ml each. After a minimum of 1 hour equilibration, plates were read on a BMG PHERAstar FS multi-label reader (BMG LabTech). The half maximal inhibitory concentration (IC50) values were calculated using IDBS Activity Base software with a four parameter logistic curve fit by the equation y=A+((B−A)/(1+((C/x)^D))), wherein A denotes the bottom plateau of the curve, B denotes the top plateau of the curve, C denotes the x value at the middle of the curve, D denotes the slope factor, x denotes the original known x values, and y denotes the original known y values. Data was fitted using the Levenburg Marquardt algorithm.

[2] = tested on: acute myelocytic leukemia (AML) cell line MV4-11; experiment: Oncology cell growth assay (3-day proliferation, CellTiter-Glo); assay type: cell-based; conditions: Homo sapiens, MV4-11, 72 h, MV4-11 cells, 3000 cells/well, compounds listed under IC50 range headings, read-out: MV411 IC50 (gIC50, inhibition of proliferation)
Protocol: The impact of Example compounds on cancer cell proliferation was determined using the acute myelocytic leukemia (AML) cell line MV4-11 (ATCC) in a 3-day proliferation assay. MV4-11 cells were maintained in RPMI 1640 media supplemented with 10% FBS at 37° C. and an atmosphere of 5% CO2. For compound testing, compound dilutions series were prepared in DMSO via a 3-fold serial dilution from 2 mM to 0.001 mM in 384-well white flat bottom plates. The final compound concentrations in the wells were 10, 3.3, 1.1, 0.37, 0.12, 0.041, 0.013 and 0.0045 μM. MV4-11 cells were plated at a density of 3000 cells/well in final volume of 50 μl culture media and incubated for 72 hours. […] Luminescent signal from the CellTiter-Glo assay was read on an EnVision multilabel plate reader (PerkinElmer). Values for the concentration that inhibited cell growth by 50% (gIC50) between the DMSO control and background control (no cells) were determined using IDBS Activity Base software with a four parameter logistic curve fit by the equation y=A+((B−A)/(1+((C/x)^D))), wherein A denotes the bottom plateau of the curve, B denotes the top plateau of the curve, C denotes the x value at the middle of the curve, D denotes the slope factor, x denotes the original known x values, and y denotes the original known y values. Data was fitted using the Levenburg Marquardt algorithm.

Row | SMILES | pIC50 [1] | pIC50 [2]
1 | C[C@H]1CCc2c(ccc(-c3cn[nH]c3)c2OC2CCC2)N1C(=O)C1CC1 [I-54, (S)-(5-cyclobutoxy-2-methyl-6-(1H-pyrazol-4-yl)-3,4-dihydroquinolin-1 (2H)-yl)(cyclopropyl)methanone] | 6.00 to 7.00 | > 6.30
2 | C[C@H]1CCc2c(ccc(-c3cnn(C)c3)c2OC2CCC2)N1C(=O)C1CC1 [I-55, (S)-(5-cyclobutoxy-2-methyl-6-(1-methyl-1H-pyrazol-4-yl)-3,4-dihydroquinolin-1 (2H)-yl)(cyclopropyl)methanone] | 6.00 to 7.00 | > 6.30
3 | C[C@H]1CCc2c(ccc(-c3ccn[nH]3)c2OC2CCC2)N1C(=O)C1CC1 [I-56, (S)-(5-cyclobutoxy-2-methyl-6-(1H-pyrazol-5-yl)-3,4-dihydroquinolin-1(2H)-yl)(cyclopropyl)methanone] | 5.00 to 6.00 | 6.00 to 6.30
4 | C[C@H]1CCc2c(ccc(-c3cn(C)cn3)c2OC2CCC2)N1C(=O)C1CC1 [I-57, (S)-(5-cyclobutoxy-2-methyl-6-(1-methyl-1H-imidazol-4-yl)-3,4-dihydroquinolin-1(2H)-yl)(cyclopropyl)methanone] | 6.00 to 7.00 | > 6.30
5 | C[C@H]1CCc2c(OC3CCC3)c(-c3cnn(C4CC4)c3)cc(F)c2N1C(=O)C1CC1 [I-69, (S)-(5-cyclobutoxy-6-(1-cyclopropyl-1H-pyrazol-4-yl)-8-fluoro-2-methyl-3,4-dihydroquinolin-1(2H)-yl)(cyclopropyl)methanone] | 5.00 to 6.00 | 6.00 to 6.30
6 | C[C@H]1CCc2c(OC3CCC3)c(-c3cn[nH]c3)cc(F)c2N1C(=O)C1CC1 [I-70, (S)-(5-cyclobutoxy-8-fluoro-2-methyl-6-(1H-pyrazol-4-yl)-3,4-dihydroquinolin-1(2H)-yl)(cyclopropyl)methanone] | 5.00 to 6.00 | 6.00 to 6.30
7 | COC(=O)N1c2c(F)cc(-c3cnn(C4CC4)c3)c(OC3CCC3)c2CC[C@@H]1C [I-71, (S)-methyl 5-cyclobutoxy-6-(1-cyclopropyl-1H-pyrazol-4-yl)-8-fluoro-2-methyl-3,4-dihydroquinoline-1(2H)-carboxylate] | 6.00 to 7.00 | 6.00 to 6.30
8 | COC(=O)N1c2c(F)cc(-c3cn[nH]c3)c(OC3CCC3)c2CC[C@@H]1C [I-72, (S)-methyl 5-cyclobutoxy-8-fluoro-2-methyl-6-(1H-pyrazol-4-yl)-3,4-dihydroquinoline-1(2H)-carboxylate] | 6.00 to 7.00 | > 6.30
9 | CC(=O)N1c2c(F)cc(-c3cnn(C4CC4)c3)c(OC3CCC3)c2CC[C@@H]1C [I-73, (S)-1-(5-cyclobutoxy-6-(1-cyclopropyl-1H-pyrazol-4-yl)-8-fluoro-2-methyl-3,4-dihydroquinolin-1(2H)-yl)ethanone] | 6.00 to 7.00 | 6.00 to 6.30
10 | CC(=O)N1c2c(F)cc(-c3cn[nH]c3)c(OC3CCC3)c2CC[C@@H]1C [I-74, (S)-1-(5-cyclobutoxy-8-fluoro-2-methyl-6-(1H-pyrazol-4-yl)-3,4-dihydroquinolin-1(2H)-yl)ethanone] | 5.00 to 6.00 | 6.00 to 6.30
11 | CC(=O)N1c2c(F)c(F)c(-c3cnn(C4CC4)c3)c(OC3CCC3)c2CC[C@@H]1C [I-75, (S)-1-(5-cyclobutoxy-6-(1-cyclopropyl-1H-pyrazol-4-yl)-7,8-difluoro-2-methyl-3,4-dihydroquinolin-1 (2H)-yl)ethanone] | ≤ 5.00 | < 6.00
12 | C[C@H]1CCc2c(ccc(-c3cnn(C4CCNCC4)c3)c2Oc2cccc(Cl)n2)N1C(=O)C1CC1 [I-94, (S)-(5-(6-chloropyridin-2-yloxy)-2-methyl-6-(1-(piperidin-4-yl)-1H-pyrazol-4-yl)-3,4-dihydroquinolin-1(2H)-yl)(cyclopropyl)methanone] | 5.00 to 6.00 | > 6.30
13 | C[C@H]1CCc2c(ccc(-c3cnn(C4CCNCC4)c3)c2Oc2ccccn2)N1C(=O)C1CC1 [I-95, (S)-cyclopropyl(2-methyl-6-(1-(piperidin-4-yl)-1H-pyrazol-4-yl)-5-(pyridin-2-yloxy)-3,4-dihydroquinolin-1(2H)-yl)methanone] | 5.00 to 6.00 | > 6.30
14 | COC(=O)N1c2ccc(-c3cnn(C4CCNCC4)c3)c(Oc3ccccn3)c2CC[C@@H]1C [I-96, (S)-methyl 2-methyl-6-(1-(piperidin-4-yl)-1H-pyrazol-4-yl)-5-(pyridin-2-yloxy)-3,4-dihydroquinoline-1(2H)-carboxylate] | 6.00 to 7.00 | > 6.30
15 | C[C@H]1CCc2c(ccc(-c3cnn(C4CCNCC4)c3)c2Oc2cccc(F)n2)N1C(=O)C1CC1 [I-97, (S)-cyclopropyl(5-(6-fluoropyridin-2-yloxy)-2-methyl-6-(1-(piperidin-4-yl)-1H-pyrazol-4-yl)-3,4-dihydroquinolin-1(2H)-yl)methanone] | 6.00 to 7.00 | > 6.30
16 | COc1cccc(Oc2c(-c3cnn(C4CCNCC4)c3)ccc3c2CC[C@H](C)N3C(=O)C2CC2)n1 [I-98, (S)-cyclopropyl(5-(6-methoxypyridin-2-yloxy)-2-methyl-6-(1-(piperidin-4-yl)-1H-pyrazol-4-yl)-3,4-dihydroquinolin-1(2H)-yl)methanone] | 6.00 to 7.00 | > 6.30
17 | C[C@H]1CCc2c(OC3CCC3)c(-c3cnn(C4CCNCC4)c3)cc(F)c2N1C(=O)C1CC1 [I-103, (S)-(5-cyclobutoxy-8-fluoro-2-methyl-6-(1-(piperidin-4-yl)-1H-pyrazol-4-yl)-3,4-dihydroquinolin-1(2H)-yl)(cyclopropyl)methanone] | 6.00 to 7.00 | > 6.30
18 | CC(=O)N1c2c(F)cc(-c3cnn(C4CCNCC4)c3)c(OC3CCC3)c2CC[C@@H]1C [I-105, (S)-1-(5-cyclobutoxy-8-fluoro-2-methyl-6-(1-(piperidin-4-yl)-1H-pyrazol-4-yl)-3,4-dihydroquinolin-1(2H)-yl)ethanone] | 6.00 to 7.00 | > 6.30
19 | CC(=O)N1c2c(F)c(F)c(-c3cnn(C4CCNCC4)c3)c(OC3CCC3)c2CC[C@@H]1C [I-106, (S)-1-(5-cyclobutoxy-7,8-difluoro-2-methyl-6-(1-(piperidin-4-yl)-1H-pyrazol-4-yl)-3,4-dihydroquinolin-1 (2H)-yl)ethanone] | 5.00 to 6.00 | < 6.00
20 | COC(=O)N1c2ccc(-c3cnn(C4CC5CNCC5C4)c3)c(OC3CCC3)c2CC[C@@H]1C (stereo partly drawn) [I-109, (2S)-methyl 5-cyclobutoxy-2-methyl-6-(1-(octahydrocyclopenta[c]pyrrol-5-yl)-1H-pyrazol-4-yl)-3,4-dihydroquinoline-1(2H)-carboxylate] | 6.00 to 7.00 | > 6.30
21 | COC(=O)N1c2c(F)cc(-c3cnn(C4CCNCC4)c3)c(OC3CCC3)c2CC[C@@H]1C [I-110, (S)-methyl 5-cyclobutoxy-8-fluoro-2-methyl-6-(1-(piperidin-4-yl)-1H-pyrazol-4-yl)-3,4-dihydroquinoline-1(2H)-carboxylate] | 6.00 to 7.00 | > 6.30
22 | C[C@H]1CCc2c(ccc(-c3cnoc3)c2OC2CCC2)N1C(=O)C1CC1 [I-123, (S)-(5-cyclobutoxy-6-(isoxazol-4-yl)-2-methyl-3,4-dihydroquinolin-1(2H)-yl)(cyclopropyl)methanone] | 5.00 to 6.00 | < 6.00
23 | C[C@H]1CCc2c(OC3CCC3)c(-c3cn(C)nn3)cc(F)c2N1C(=O)C1CC1 [I-124, (S)-(5-cyclobutoxy-8-fluoro-2-methyl-6-(1-methyl-1H-1,2,3-triazol-4-yl)-3,4-dihydroquinolin-1 (2H)-yl)(cyclopropyl)methanone] | 6.00 to 7.00 | 6.00 to 6.30
24 | COC(=O)N1c2c(F)cc(-c3cn(C)nn3)c(OC3CCC3)c2CC[C@@H]1C [I-125, (S)-methyl 5-cyclobutoxy-8-fluoro-2-methyl-6-(1-methyl-1H-1,2,3-triazol-4-yl)-3,4-dihydroquinoline-1(2H)-carboxylate] | 5.00 to 6.00 | < 6.00
